Experiments:
[1] = Stability under conditions of HPLC purity determination; assay type: physicochemical; conditions: sample preparation for HPLC
thrombin = thrombin (Homo sapiens, UniProt P00734); experiment: Thrombin inhibition, chromogenic substrate (Method A); assay type: biochemical
Procedure: 50 μl thrombin (33.3 ng/ml in assay buffer) and 20 μl vehicle or compound solution were added to 110 μl assay buffer (100 mM Na orthophosphate (80% Na2HPO4 and 20% NaH2PO4), 200 mM NaCl, 0.5% PEG 6000, 0.02% Na azide, pH 7.5) and incubated for 5 minutes at 37° C.

Plasmin = Plasmin (Homo sapiens, UniProt P00747); experiment: Plasmin inhibition, chromogenic substrate (Method B); assay type: biochemical
Procedure: 50 μl Plasmin (75 ng/ml in assay buffer) and 20 μl vehicle or compound solution were added to 110 μl assay buffer (100 mM Na orthophosphate (80% Na2HPO4 and 20% NaH2PO4), 200 mM NaCl, 0.5% PEG 6000, 0.02% Na azide, pH 7.5) and incubated for 5 minutes at 37° C.

Trypsin [2] = experiment: Trypsin inhibition, chromogenic substrate (Method C); assay type: biochemical; conditions: Trypsin versus thrombin
Procedure: (§1) 50 μl Trypsin (20 ng/ml in assay buffer) and 20 μl vehicle or compound solution were added to 110 μl assay buffer (100 mM Na orthophosphate (80% Na2HPO4 and 20% NaH2PO4), 200 mM NaCl, 0.5% PEG 6000, 0.02% Na azide, pH 7.5) and incubated for 5 minutes at 37° C.

Trypsin [3] = tested on: T1, Trypsin; experiment: as above; assay type: biochemical; conditions: Trypsin
T1 construct: IC50; other: Trypsin; Ki
Procedure: as §1

[4] = Solubility of TRI 50c monosodium salt at different pH values; assay type: physicochemical
Procedure: It may be desirable to make aqueous solutions of boronic acid drugs for administering them. […] However, a solution with a pH of 9.5 may be unacceptable or undesirable. Accordingly, a pharmaceutically acceptable organic acid may be included in the particulate formulation in an amount selected to reduce the pH to a value at which the solution is more acceptable but at which a solution of drinkable quantity (e.g. about 50 ml to about 150 ml) may be formed by reconstituting the particulate formulation. As the organic acid may be mentioned citric acid, tartaric acid or malic acid, for example. In many instances, citric acid is chosen.
In a first series of experiments, this amount of the salt was dissolved in 50 ml water to form a solution of approximately pH 9.5. Dilute aqueous HCl was added to determine how much the pH could be reduced before precipitation occurred.
In a second series of experiments, the same amount of the salt was dissolved in 150 ml water, and citric acid was added. […] Since acid solutions tend to be more palatable than alkaline ones, and citric acid is a common flavouring agent, this behaviour of the salt is highly beneficial. […] In general, it is contemplated that the boronate will be formulated to form a reconstituted solution having a pH of from 4 to 8, e.g. 4 to 7, optionally 5 to 6.

Sequence of Plasmin (P00747 581-810 limits assumed, species assumed): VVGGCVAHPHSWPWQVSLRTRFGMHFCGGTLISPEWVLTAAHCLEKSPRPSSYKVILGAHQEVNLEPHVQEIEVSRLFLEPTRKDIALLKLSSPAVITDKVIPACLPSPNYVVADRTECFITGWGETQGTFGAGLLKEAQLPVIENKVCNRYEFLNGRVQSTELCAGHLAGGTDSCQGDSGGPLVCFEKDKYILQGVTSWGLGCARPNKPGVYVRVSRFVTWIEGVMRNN
Sequence of Plasmin (P00747 97-580 partner limits assumed, species assumed): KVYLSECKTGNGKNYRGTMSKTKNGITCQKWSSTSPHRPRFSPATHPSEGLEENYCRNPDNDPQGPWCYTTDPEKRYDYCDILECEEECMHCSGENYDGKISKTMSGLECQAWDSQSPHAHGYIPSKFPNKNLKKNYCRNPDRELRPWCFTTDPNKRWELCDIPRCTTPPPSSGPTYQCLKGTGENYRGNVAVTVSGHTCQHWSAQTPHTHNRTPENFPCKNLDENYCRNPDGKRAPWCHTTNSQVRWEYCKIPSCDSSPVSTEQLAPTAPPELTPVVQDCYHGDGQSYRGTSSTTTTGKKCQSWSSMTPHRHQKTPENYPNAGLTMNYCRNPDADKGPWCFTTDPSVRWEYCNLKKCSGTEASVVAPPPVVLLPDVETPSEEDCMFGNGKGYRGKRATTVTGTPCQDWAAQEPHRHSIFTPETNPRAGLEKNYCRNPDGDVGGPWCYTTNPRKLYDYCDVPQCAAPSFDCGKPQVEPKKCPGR

With COCCCC(NC(=O)C1CCCN1C(=O)C(Cc1ccccc1)NC(=O)OCc1ccccc1)B1OCCNCCO1 (stereo not drawn) [TRI 50d] the “stability under HPLC purity determination conditions” value [1] was “not stable”.

With COCCC[C@H](NC(=O)[C@@H]1CCCN1C(=O)[C@@H](Cc1ccc(F)cc1)NC(=O)OCc1ccccc1)B(O)O [TRI 50f, Cbz-4-F-Phe-Pro-boroMpg-OH] the IC50 (thrombin) was under 0.1 µM, the Ki (thrombin) was under 0.075 µM and the IC50 (Plasmin; Plasmin) was over 100 µM. It also gave a Ki (Plasmin; Plasmin) of over 100 µM, a Selectivity (Plasmin; Plasmin versus thrombin) of over 1000 and a Selectivity (Trypsin [2]) of over 100. It also gave an IC50 (Trypsin [3]) of over 10 µM and a Ki (Trypsin [3]) of over 5 µM.

In the case of COCCC[C@H](NC(=O)[C@@H]1CCCN1C(=O)[C@@H](Cc1ccccc1)NC(=O)OCc1ccccc1)B(O)O.[Na+] [TRI 50c monosodium salt, Cbz-(R)-Phe-(S)-Pro-(R)-Mpg-B(OH)2 monosodium salt], the “concentration of boronate salt solution that can be formed” value ([4]; aqueous solution at a pH of about 9.5) is reported as “about 600 mg/ml”, the “pH below which the salt tended to precipitate” value ([4]; salt equivalent to 600 mg TRI 50c in 50 ml water, dilute aqueous HCl added) is reported as “below 9” and the “pH to which solution could be reduced before precipitation occurred” value ([4]; salt equivalent to 600 mg TRI 50c in 150 ml water, citric acid added) is reported as 3.7-3.8.

From patent US20070185060A1, “Boronic acid thrombin inhibitors” (TRIGEN LIMITED, priority 2004, published 2007)
